Patent EP2787958B1, “CHELIDONIUM MAJUS EXTRACTS AND THEIR USE IN THE TREATMENT OF SKIN DISORDERS AND PROMOTION OF SKIN REGENERATION” (priority 2011, dated 2013)
Like-named read-outs stand apart in the source and are kept apart here.

Tests used:
[1] = test system: Human keratinocytes (HEK, Human Epidermal Keratinocytes); assay: Mitochondrial dehydrogenase activity (WST-1 formazan assay) in HEK cells; assay type: cell-based
[2] = test system: HUVEC cells (Human Umbilical Vein Endothelial Cells); assay: Mitochondrial dehydrogenase activity (WST-1 formazan assay) in HUVEC cells; assay type: cell-based; conditions: vascular endothelial cells
interleukin 1β (IL-1β) = assay: Inflammatory cytokines in cell supernatant (Mosaic ELISA microarray): IL-1β; assay type: cell-based, Human; conditions: 24 hours
interleukin 6 (IL-6) = assay: Inflammatory cytokines in cell supernatant (Mosaic ELISA microarray): IL-6; assay type: cell-based, Human; conditions: for IL-6 ng/(ml* No. of cells from photo) ± SD: 24 hours; for IL-6 production (effect in words): 1-10 µM
[3] = Anti-radical activity (decay of the DPPH radical); assay type: biochemical; conditions: for Anti-radical (skin protective): 24 hours
In short: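 Test substance in ethanol mixed 1:1 with 200 µM DPPH (stock concentrations), in quadruplicate. Absorbance read at 530 nm after 30 min, with vitamin C and ethanol-only controls. IC50 from variable-slope Hill regression of dose-activity curves.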

HDF cells [4] = assay: Summary of uses and toxic effects deduced from the cell assays (Table 1); assay type: cell-based, Human
In short: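 HDF cells exposed to test substances at a given dosage for 24 h; uses and toxicity inferred from free-radical scavenging, mitochondrial dehydrogenase activity, IL-1β/IL-6 production (basal or induced by 100 µM H2O2), proliferation under standard growth conditions, and senescence-like morphology.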

[5] = test system: collagen produced by HDF cells; assay: Quantity of collagen produced by the cells (elution of Sirius Red); conditions: 1-10 µM (1 µM and 10 µM)
[6] = test system: Human dermal fibroblasts (HDF); assay: Mitochondrial dehydrogenase activity (WST-1 formazan assay) in HDF cells; conditions: for Revitalizing agent: 24 hours; for activity at 1 µM / activity at 10 µM: Homo sapiens, Fibroblast, read-out: % mitochondrial dehydrogenase activity ± SD
HDF cells [7] = assay: Evaluation of cell proliferation (counting of Sirius Red stained cells in photographs); conditions: 24 hours
[8] = Dose 1 µm (coptisine: 1 pm [sic])
[9] = Dose 1 µm (coptisine: 1 pm [sic]), 24 hours

**Q.** What does the source list for `COc1ccc2cc3[n+](cc2c1OC)CCc1cc2c(cc1-3)OCO2` [berberine]?
**A.** mitochondrial dehydrogenase activity (effect in words) ([1]; higher doses): inhibit mitochondrial dehydrogenase activity; mitochondrial dehydrogenase activity (effect in words) ([1]; low doses): stimulate mitochondrial dehydrogenase activity; mitochondrial dehydrogenase activity (effect in words) ([2]; higher doses): inhibit mitochondrial dehydrogenase activity; mitochondrial dehydrogenase activity (effect in words) ([2]; low doses): stimulate mitochondrial dehydrogenase activity; IL-1β ng/(ml* No. of cells from photo) ± SD (interleukin 1β (IL-1β); 1 µM, 34 ng/ml TGF-β1): 138±5 ng/(ml* No. of cells from photo); IL-1β ng/(ml* No. of cells from photo) ± SD (interleukin 1β (IL-1β); 1 µM, 100 µM H2O2): 178±1 ng/(ml* No. of cells from photo); IL-1β ng/(ml* No. of cells from photo) ± SD (interleukin 1β (IL-1β); 1 µM, Standard conditions): 120±6 ng/(ml* No. of cells from photo); IL-1β ng/(ml* No. of cells from photo) ± SD (interleukin 1β (IL-1β); 10 µM, 34 ng/ml TGF-β1): 146±4 ng/(ml* No. of cells from photo); IL-1β ng/(ml* No. of cells from photo) ± SD (interleukin 1β (IL-1β); 10 µM, 100 µM H2O2): 210±16 ng/(ml* No. of cells from photo); IL-1β ng/(ml* No. of cells from photo) ± SD (interleukin 1β (IL-1β); 10 µM, Standard conditions): 94±5 ng/(ml* No. of cells from photo); IL-6 ng/(ml* No. of cells from photo) ± SD (interleukin 6 (IL-6); 1 µM, 34 ng/ml TGF-β1): 657±5 ng/(ml* No. of cells from photo); IL-6 ng/(ml* No. of cells from photo) ± SD (interleukin 6 (IL-6); 1 µM, 100 µM H2O2): 1519±155 ng/(ml* No. of cells from photo); IL-6 ng/(ml* No. of cells from photo) ± SD (interleukin 6 (IL-6); 1 µM, Standard conditions): 843±35 ng/(ml* No. of cells from photo); IL-6 ng/(ml* No. of cells from photo) ± SD (interleukin 6 (IL-6); 10 µM, 34 ng/ml TGF-β1): 603±21 ng/(ml* No. of cells from photo); IL-6 ng/(ml* No. of cells from photo) ± SD (interleukin 6 (IL-6); 10 µM, 100 µM H2O2): 1201±84 ng/(ml* No. of cells from photo); IL-6 ng/(ml* No. of cells from photo) ± SD (interleukin 6 (IL-6); 10 µM, Standard conditions): 618±25 ng/(ml* No. of cells from photo); IL-6 production (effect in words) (interleukin 6 (IL-6); 34 ng/ml TGF-β1): tendency to reduce the production of IL-6 in a dose-dependent manner; IL-6 production (effect in words) (interleukin 6 (IL-6); 100 µM H2O2): tendency to reduce the production of IL-6 in a dose-dependent manner; IL-6 production (effect in words) (interleukin 6 (IL-6); standard conditions): tendency to reduce the production of IL-6 in a dose-dependent manner; % DPPH activity ([3]; 1 mM, 30 minutes): 100%; Anti-radical (skin protective) [3, 8]: No; Anti-radical (skin protective) ([3]; Dose 10 µm): No; Cytotoxic (HDF cells [4]): No; Irritant (HDF cells [4]): No; Anti-fibrotic (prevention of scar formation, also from acne) (HDF cells [4]; [9]): Yes (↓collagen, ↓IL-6); Cytoprotective (antioxidant, anti-inflammatory and anti-ageing; useful also in the treatment of acne) (HDF cells [4]; [9]): Yes* (↓IL-6); Wound-healing (HDF cells [4]; [9]): No; Anti-fibrotic (prevention of scar formation, also from acne) (HDF cells [4]; Dose 10 µm, 24 hours): Yes (↓collagen, ↓IL-6); Cytoprotective (antioxidant, anti-inflammatory and anti-ageing; useful also in the treatment of acne) (HDF cells [4]; Dose 10 µm, 24 hours): Yes* (↓IL-6); Cytotoxic (HDF cells [4]; Dose 10 µm, 24 hours): No; Irritant (HDF cells [4]; Dose 10 µm, 24 hours): No; Wound-healing (HDF cells [4]; Dose 10 µm, 24 hours): No; concentrations at which no toxic (cytotoxic and irritant) effects are shown (HDF cells [4]; exposure for 24 hours): less than or equal to 10 µM; collagen production (effect in words) ([5]; 34 ng/ml TGF-β1): antagonizes the stimulation of collagen induced by 34 ng/ml TGF-β1; collagen production (effect in words) ([5]; 100 µM H2O2): antagonizes the inhibition of collagen production induced by H2O2; mitochondrial dehydrogenase activity (effect in words) ([6]; 1 and 10 µM, 18 h and 42 h, more marked at 42 h): increased with respect to the control; Revitalizing agent [6, 8]: Yes; Revitalizing agent ([6]; Dose 10 µm): Yes; activity at 1 µM ([6]; 18 h): 114 ± 2.98%; activity at 10 µM ([6]; 18 h): 114 ± 10%; activity at 1 µM ([6]; 42 h): 140 ± 8.89%; activity at 10 µM ([6]; 42 h): 132 ± 10.2%; mitochondrial dehydrogenase activity (effect in words) ([6]; fibroblast cells, higher doses): inhibit mitochondrial dehydrogenase activity; mitochondrial dehydrogenase activity (effect in words) ([6]; fibroblast cells, low dosage): stimulate mitochondrial dehydrogenase activity; No. of cells from photo ± SD (HDF cells [7]; 1 µM, 34 ng/ml TGF-β1): 181±18; No. of cells from photo ± SD (HDF cells [7]; 1 µM, 100 µM H2O2): 129±24; No. of cells from photo ± SD (HDF cells [7]; 1 µM, Standard conditions): 203±11; No. of cells from photo ± SD (HDF cells [7]; 10 µM, 34 ng/ml TGF-β1): 184±28; No. of cells from photo ± SD (HDF cells [7]; 10 µM, 100 µM H2O2): 119±10; No. of cells from photo ± SD (HDF cells [7]; 10 µM, Standard conditions): 176±35
